Measured values published in PubChem BioAssay AID434987 (Southern Research Specialized Biocontainment Screening …, 2010).
Active and inactive are the calls of the source. How the calls were made is not given here.

Test system: M. tuberculosis H37Rv growth inhibition with meropenem
Test: dose response, H37Rv, with and without meropenem (AID 434987);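 further: growth over 7 days at 37 °C before Alamar Blue read on day 9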
[1] = M. tuberculosis H37Rv growth inhibition, measured here: IC50 without meropenem
[2] = M. tuberculosis H37Rv growth inhibition, measured here: IC90 without meropenem
[3] = measured here: IC90 with meropenem

| Structure (SMILES) | IC50 | IC50 [1] | IC90 [2] | IC90 [3] |
| --- | --- | --- | --- | --- |
| COc1ccc(CC2=C(O)c3ccccc3C(=O)C2=O)cc1 | 47.2 µM (inactive) | > 100 µM | > 100 µM | > 100 µM |
| COc1c(F)c(F)c(C(=O)Nc2c(C)cc(Br)cc2C)c(F)c1F | 4.58 µM | > 100 µM | > 100 µM | > 100 µM |
| CC(C)c1ccc(S(=O)(=O)N2CCN(C(C)C(=O)NC3CCCC3)CC2)cc1 (centres undefined) | > 100 µM (inactive) | > 100 µM | > 100 µM | > 100 µM |
| O=c1oc(-c2ccccc2)nc2sc3c(c12)CCC3 | 32.2 µM | > 100 µM | > 100 µM | > 100 µM |
| FC(F)Oc1ccccc1C1CC(c2ccc(Br)s2)Nc2ncnn21 (centres undefined) | > 100 µM (inactive) | > 100 µM | > 100 µM | > 100 µM |
| CS(=O)(=O)N(Cc1ccc(Cl)cc1)c1ccc(C(=O)NCCC2=CCCCC2)cc1 | > 100 µM (inactive) | > 100 µM | > 100 µM | > 100 µM |
| CCO[C@H]1OC(C(=O)NCc2nc3ccccc3[nH]2)=C[C@@H](c2cn(C(C)=O)c3ccccc23)[C@@H]1CCCO | 90.7 µM (inactive) | 80 µM | > 100 µM | > 100 µM |
| CCc1ccc2c(c1)C(c1ccc([N+](=O)[O-])cc1)=NNC(c1ccc(C)cc1)=N2 | > 100 µM (inactive) | > 100 µM | > 100 µM | > 100 µM |
| COc1ccc(C2(CNC(=O)c3cc([N+](=O)[O-])cc([N+](=O)[O-])c3)CCCC2)cc1OC | 1.43 µM (inactive) | 1.86 µM | 3 µM | 1.61 µM |
| CCn1cc(C(=O)O)c(=O)c2cc(F)c(N/N=C/c3ccccc3)cc21 | 22.8 µM (inactive) | 36.5 µM | > 100 µM | > 100 µM |
| CC(C)(C)C1=Nn2c(nnc2-c2ccccc2F)SC1 | 17.3 µM | > 100 µM | > 100 µM | 78.3 µM |
| COc1ccc(-c2cc(=Nc3ccc(C)cc3)c3ccccc3o2)cc1 | 78.3 µM (inactive) | > 100 µM | > 100 µM | 98.3 µM |
| CCOC(=O)c1c(C)[nH]c(C)c1C(=O)COC(=O)/C=C/c1ccc(OC(F)F)cc1 | 61.1 µM (inactive) | 98.3 µM | > 100 µM | 91.4 µM |
| COC(=O)Cn1c2ccccc2c2nc(C)sc21 | 18.9 µM (inactive) | 25.4 µM | 44.4 µM | 27.8 µM |
| COc1ccc(-c2cc(C(N)=O)nc(N3CCCCCC3)n2)cc1 | 3.95 µM | > 100 µM | > 100 µM | > 100 µM |
| Cc1ccc(NC(=O)CSc2nnc([C@@H]3CCCN3C(=O)OC(C)(C)C)o2)c(C)c1 | 78.5 µM (inactive) | 86.5 µM | > 100 µM | > 100 µM |
| O=C(Nc1ccc(Cl)cc1)C1CC2CCCC(C1)C2=O (centres undefined) | > 100 µM (inactive) | > 100 µM | > 100 µM | > 100 µM |
| CC(C)OCc1c(C(=O)Nc2nccs2)oc2ccccc12 | 97.9 µM (inactive) | > 100 µM | > 100 µM | > 100 µM |
| COCCNC(=O)c1ccc(NC(=O)C2(c3ccccc3)CCCC2)cc1 | 8.1 µM | 33.4 µM | > 100 µM | > 100 µM |
| C/C(=N\NC(=O)c1cc(Br)ccc1O)c1ccccn1 | 3.88 µM | 94.9 µM | > 100 µM | > 100 µM |
| COc1ccc(-c2csc(Nc3ncccc3C)n2)cc1OC | 61.3 µM (inactive) | > 100 µM | > 100 µM | > 100 µM |

| Structure (SMILES) | IC50 | IC50 [1] | IC90 [2] | IC90 [3] |
| --- | --- | --- | --- | --- |
| C=CCSc1nnc2c(n1)OC(c1c(C)[nH]n(-c3ccccc3)c1=O)Nc1ccccc1-2 (centres undefined) | 28 µM | > 100 µM | > 100 µM | > 100 µM |
| Cc1ccc(CN2C(=O)N/C(=C\c3ccc(-c4ccc(C(=O)O)cc4C)o3)C2=O)cc1 | 5.14 µM | 23.8 µM | > 100 µM | 14.7 µM |
| CCOCC(=O)Nc1cc(C(F)(F)F)ccc1Oc1cccc(Br)c1 | 56.9 µM (inactive) | > 100 µM | > 100 µM | > 100 µM |
| CN(C)c1ccc(S(=O)(=O)NCC(=O)OCC(=O)Nc2cccc(Cl)c2)cc1[N+](=O)[O-] | > 100 µM (inactive) | > 100 µM | > 100 µM | > 100 µM |
| NC(=O)CC(NC(=O)Cc1ccc(Br)cc1)c1ccc(NC2CCCCCC2)c([N+](=O)[O-])c1 (centres undefined) | 72.9 µM (inactive) | > 100 µM | > 100 µM | > 100 µM |
| Cc1ccc(N=Cc2c(O)ccc3ccccc23)cc1F | > 100 µM (inactive) | > 100 µM | > 100 µM | > 100 µM |
| CCOC(=O)c1sc(NC(=O)CN2CCCC2)c(C(=O)OCC)c1C | > 100 µM (inactive) | > 100 µM | > 100 µM | > 100 µM |
| O=C(Oc1c(-c2ccccc2)c(=O)n2c3c(cccc13)CC2)c1cccc([N+](=O)[O-])c1 | 3.97 µM | 30.5 µM | 85.1 µM | 62.3 µM |
| Cn1c2ccccc2c(=O)c2cc(C#CC3(O)CCCCC3)ccc21 | > 100 µM (inactive) | > 100 µM | > 100 µM | > 100 µM |
| CCOC(=O)c1cc(-c2ccc(C)cc2)n(CCC(=O)N2CCN(c3ccccn3)CC2)c1C | 69.5 µM (inactive) | 89.4 µM | > 100 µM | > 100 µM |
| c1ccc(OCc2nnc(-c3ccccc3)o2)cc1 | 1.4 µM | 80.4 µM | > 100 µM | > 100 µM |
| S=C(Nc1ccccc1)Nc1ccc(Cl)cn1 | 4.68 µM | 90.6 µM | > 100 µM | > 100 µM |
| O=C(C1=C[C@H](c2ccc(Br)cc2)C[C@H](OCCCCO)O1)N1CCN(Cc2ccc3c(c2)OCO3)CC1 | 49.4 µM (inactive) | 65.3 µM | 88 µM | > 100 µM |
| CN(C)/N=C/c1ccc(/C=N/NC(N)=S)o1 | 15.2 µM | 90.8 µM | > 100 µM | 43.3 µM |
| CSc1nc(-c2ccc(Cl)cc2)nn1S(=O)(=O)c1ccccc1 | 9.85 µM | > 100 µM | > 100 µM | > 100 µM |
| COC(=O)c1c(C)n(-c2ccc(C)cc2)c2ccc(O)cc12 | > 100 µM (inactive) | > 100 µM | > 100 µM | > 100 µM |
| Cc1cc2ccccc2n1CCNC(=O)COc1ccccc1 | 30.1 µM (inactive) | 44.7 µM | 60.3 µM | 42.8 µM |
| COc1ccc(-c2csc(NC(CO)c3nc4ccccc4n3Cc3ccc(C)cc3)n2)cc1 (centres undefined) | 25 µM (inactive) | 48.4 µM | 57.2 µM | 26.4 µM |
| O=C(COC(=O)C1CC1)c1c[nH]c2ccccc12 | 0.999 µM | > 100 µM | > 100 µM | > 100 µM |
| CCCC(C)NC(=O)c1ccc(OCc2ccc(Cl)cc2)c(OC)c1 (centres undefined) | 7.56 µM | 36.2 µM | > 100 µM | 11.6 µM |
